In experiment [1] the target is beta 5 subunit (chymotrypsin-like) of the Saccharomyces cerevisiae 20S proteasome (Saccharomyces cerevisiae, UniProt P30656). The experiment is described as follows: Inhibition of the beta 5 subunit (chymotrypsin-like) of the 20S proteasome. In kind it is biochemical. The note with it: S. cerevisiae 20S proteasome, pure compound. From the text: (§1) We discovered the new natural products, compounds having formulas 1 and 2, from a collection of marine cyanobacteria obtained from Curaçao in the Netherland Antilles. We were led to isolate this compound from cancer cell toxicity of the extract and semi-purified fractions.

Experiment [2] has as its system human lung adenocarcinoma (H460) cells. As to the kind of experiment: Cytotoxicity to human lung adenocarcinoma (H460) cells. In kind it is cell-based. Particulars: NCI-H460.
Source text: as §1

Our source for the IC50 and EC50 values is patent US9409944B2, “Compositions and methods for inhibiting proteases” (The Regents of the University of California, priority 2011, dated 2016).

Broadly, the IC50 is the point on the concentration scale where inhibition reaches its midpoint. Low readings indicate higher potency, high ones lower potency. For orientation: EC50 means the concentration giving half of the maximal effect.

In experiment [1], `CCCCCC(=O)N[C@H](C(=O)N[C@@H](CC[S+](C)[O-])C(=O)N[C@@H](CC(C)C)C(=O)[C@@]1(C)CO1)C(C)C` (mixture of isomers) [Compound 1] gave an IC50 of 5.3 ± 0.5 nM. In addition, the midpoint of the response in experiment [2], the EC50, lay at 14.5 nM.

For the compound `C[C@@]12OC(=O)[C@]1([C@@H](O)[C@@H]1C=CCCC1)NC(=O)[C@@H]2CCCl` [salinosporamide A, reference compound], in experiment [1], the IC50 came to 1.4 ± 0.2 nM.
